# Values quoted from earlier work as cited in patent EP4772943A1, “ALKALINE AQUEOUS SOLUTION FOR SEMICONDUCTOR, METHOD FOR USE AS LOW-TOXICITY ALKALINE AQUEOUS SOLUTION FOR SEMICONDUCTOR, AND METHOD FOR PRODUCING ALKALINE AQUEOUS SOLUTION FOR SEMICONDUCTOR” (priority 2023, dated 2025).
# Tested on: Daphnia sp.
# Settings: OECD TG202 Daphnia sp. acute immobilization test; converted to hydroxide of the quaternary ammonium ion as 100 mass%
compound,measurement,value
"C[N+](C)(C)C.[OH-] [TMAH, Tetramethylammonium hydroxide]",EC50 value,3 µg/mL
